According to ChEMBL document CHEMBL4507291 (2021):

Key:
[1] = target: Mitogen-activated protein kinase kinase kinase 11 (Homo sapiens) (UniProt Q16584); assay: MAP3K11 (MLK3) Kinase screen; settings: Compound concentration 1.0 uM
[2] = species: Rattus norvegicus; settings: Compound concentration 10.0 uM
[3] = target: Glucocorticoid receptor (Homo sapiens) (UniProt P04150); settings: Compound concentration 10.0 uM
[4] = target: C-X-C chemokine receptor type 4 (Homo sapiens) (UniProt P61073); assay: Chemokine CXCR4 Eurofins-Panlabs radioligand binding assay; set-up: ligand concentration 0.03 nM; settings: Compound concentration 10.0 uM
[5] = target: Tyrosine-protein kinase JAK1 (Homo sapiens) (UniProt P23458); assay: JAK1 Kinase screen; settings: Compound concentration 1.0 uM
Chain of Tyrosine-protein kinase JAK1 (Homo sapiens) (P23458 whole entry): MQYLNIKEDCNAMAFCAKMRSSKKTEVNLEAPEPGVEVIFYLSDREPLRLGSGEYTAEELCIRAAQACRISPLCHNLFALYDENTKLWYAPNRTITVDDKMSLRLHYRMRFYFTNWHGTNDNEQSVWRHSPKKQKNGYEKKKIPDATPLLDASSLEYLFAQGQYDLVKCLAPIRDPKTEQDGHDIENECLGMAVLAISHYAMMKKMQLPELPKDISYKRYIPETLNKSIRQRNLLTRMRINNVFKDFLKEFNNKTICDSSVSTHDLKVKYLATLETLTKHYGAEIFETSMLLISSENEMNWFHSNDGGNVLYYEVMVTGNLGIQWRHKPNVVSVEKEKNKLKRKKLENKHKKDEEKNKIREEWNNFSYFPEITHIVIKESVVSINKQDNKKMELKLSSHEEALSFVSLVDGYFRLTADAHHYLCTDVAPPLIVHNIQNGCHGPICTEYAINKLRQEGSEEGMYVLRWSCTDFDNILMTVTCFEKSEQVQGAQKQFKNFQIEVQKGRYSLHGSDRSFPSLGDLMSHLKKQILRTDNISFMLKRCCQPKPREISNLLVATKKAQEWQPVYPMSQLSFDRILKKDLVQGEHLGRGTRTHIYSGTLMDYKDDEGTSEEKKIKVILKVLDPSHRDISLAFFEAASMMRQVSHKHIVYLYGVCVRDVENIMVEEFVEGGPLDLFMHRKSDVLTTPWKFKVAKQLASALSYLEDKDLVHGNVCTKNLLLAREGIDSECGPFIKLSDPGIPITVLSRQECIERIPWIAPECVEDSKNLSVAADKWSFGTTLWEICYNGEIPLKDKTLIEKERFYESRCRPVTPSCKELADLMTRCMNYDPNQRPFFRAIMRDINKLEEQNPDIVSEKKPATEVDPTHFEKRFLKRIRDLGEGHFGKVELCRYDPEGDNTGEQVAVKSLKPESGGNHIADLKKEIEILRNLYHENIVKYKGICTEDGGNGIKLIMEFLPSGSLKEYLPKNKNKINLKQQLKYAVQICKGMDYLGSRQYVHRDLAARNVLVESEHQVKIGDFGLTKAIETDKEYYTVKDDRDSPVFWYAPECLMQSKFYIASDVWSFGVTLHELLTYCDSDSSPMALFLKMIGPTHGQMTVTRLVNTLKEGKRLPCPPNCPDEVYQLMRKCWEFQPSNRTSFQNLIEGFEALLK

[6] = target: Myosin light chain kinase, smooth muscle (Homo sapiens) (UniProt Q15746); assay: MYLK (MLCK) Kinase screen; settings: Compound concentration 1.0 uM
[7] = target: STE20-like serine/threonine-protein kinase (Homo sapiens) (UniProt Q9H2G2); assay: SLK Kinase screen; settings: Compound concentration 1.0 uM
[8] = target: Myosin light chain kinase 2, skeletal/cardiac muscle (Homo sapiens) (UniProt Q9H1R3); assay: MLCK (MLCK2) Kinase screen; settings: Compound concentration 1.0 uM
Chain of Myosin light chain kinase 2, skeletal/cardiac muscle (Homo sapiens) (Q9H1R3 whole entry): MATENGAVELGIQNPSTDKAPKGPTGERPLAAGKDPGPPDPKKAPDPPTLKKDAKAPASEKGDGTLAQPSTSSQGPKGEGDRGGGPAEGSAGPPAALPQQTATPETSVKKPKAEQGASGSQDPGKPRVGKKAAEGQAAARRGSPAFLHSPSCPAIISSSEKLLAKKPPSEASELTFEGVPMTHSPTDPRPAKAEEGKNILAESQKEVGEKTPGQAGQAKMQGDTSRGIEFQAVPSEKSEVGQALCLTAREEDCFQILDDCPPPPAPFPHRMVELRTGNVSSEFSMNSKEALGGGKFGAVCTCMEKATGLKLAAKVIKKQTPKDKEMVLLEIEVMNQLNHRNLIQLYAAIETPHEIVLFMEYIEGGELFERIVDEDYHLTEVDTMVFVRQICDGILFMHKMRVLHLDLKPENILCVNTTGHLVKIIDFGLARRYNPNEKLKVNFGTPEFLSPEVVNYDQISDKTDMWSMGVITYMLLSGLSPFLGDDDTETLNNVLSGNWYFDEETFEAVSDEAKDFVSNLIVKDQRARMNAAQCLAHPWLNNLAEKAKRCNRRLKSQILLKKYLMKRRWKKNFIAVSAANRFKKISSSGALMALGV

[9] = test system: RAF proto-oncogene serine/threonine-protein kinase (Homo sapiens), P04049 [Y340D,Y341D]; assay: RAF1 (cRAF) Y340D Y341D Kinase screen; settings: Compound concentration 1.0 uM
[10] = target: Hepatocyte growth factor receptor (Homo sapiens) (UniProt P08581); assay: MET (cMet) Kinase screen; settings: Compound concentration 1.0 uM
[11] = target: Mitogen-activated protein kinase kinase kinase 9 (Homo sapiens) (UniProt P80192); assay: MAP3K9 (MLK1) Kinase screen; settings: Compound concentration 1.0 uM
Chain of Mitogen-activated protein kinase kinase kinase 9 (Homo sapiens) (P80192 whole entry, looked up): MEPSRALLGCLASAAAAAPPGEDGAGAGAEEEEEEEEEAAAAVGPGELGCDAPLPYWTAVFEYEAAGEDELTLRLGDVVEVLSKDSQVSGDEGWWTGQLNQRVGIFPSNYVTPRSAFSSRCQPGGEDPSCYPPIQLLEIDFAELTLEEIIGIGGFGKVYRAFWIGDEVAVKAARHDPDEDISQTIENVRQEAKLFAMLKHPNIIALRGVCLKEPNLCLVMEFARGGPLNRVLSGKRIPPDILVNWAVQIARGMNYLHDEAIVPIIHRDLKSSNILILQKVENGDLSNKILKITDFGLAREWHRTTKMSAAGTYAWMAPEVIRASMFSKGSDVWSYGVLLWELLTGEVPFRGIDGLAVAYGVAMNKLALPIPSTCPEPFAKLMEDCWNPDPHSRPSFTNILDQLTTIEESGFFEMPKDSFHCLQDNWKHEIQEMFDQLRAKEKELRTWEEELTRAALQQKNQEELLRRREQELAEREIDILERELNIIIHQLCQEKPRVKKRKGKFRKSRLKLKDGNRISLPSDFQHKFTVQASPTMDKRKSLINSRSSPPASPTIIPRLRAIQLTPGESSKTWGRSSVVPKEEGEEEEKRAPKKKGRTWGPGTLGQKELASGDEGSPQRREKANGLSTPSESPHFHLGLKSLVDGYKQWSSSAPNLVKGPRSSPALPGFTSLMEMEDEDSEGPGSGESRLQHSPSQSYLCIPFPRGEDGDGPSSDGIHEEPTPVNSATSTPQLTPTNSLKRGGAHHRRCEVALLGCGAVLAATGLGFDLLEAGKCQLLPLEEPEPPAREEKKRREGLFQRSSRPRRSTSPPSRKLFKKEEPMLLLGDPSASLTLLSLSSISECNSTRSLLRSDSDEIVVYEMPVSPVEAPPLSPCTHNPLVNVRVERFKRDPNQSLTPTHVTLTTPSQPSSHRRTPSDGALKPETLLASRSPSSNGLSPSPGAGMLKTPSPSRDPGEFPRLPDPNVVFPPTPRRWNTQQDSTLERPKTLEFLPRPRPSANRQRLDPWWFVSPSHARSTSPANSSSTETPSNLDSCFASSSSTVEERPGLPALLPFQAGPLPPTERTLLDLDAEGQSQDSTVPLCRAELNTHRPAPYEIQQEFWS

[12] = target: Serine/threonine-protein kinase MARK1 (Homo sapiens) (UniProt Q9P0L2); assay: MARK1 (MARK) Kinase screen; settings: Compound concentration 1.0 uM
[13] = target: T1, Glutamate NMDA receptor (Rattus norvegicus) (UniProt P35439+Q00959+Q00960+Q00961+Q62645+Q8VHN2+Q9R1M7); settings: Compound concentration 10.0 uM
[14] = target: CDK8/Cyclin C (Homo sapiens) (UniProt P49336+P24863); assay: CDK8/cyclin C Kinase screen; assay type: protein-complex assay; settings: Compound concentration 1.0 uM
[15] = target: T1, Glutamate NMDA receptor (Rattus norvegicus); settings: Compound concentration 10.0 uM; remark: listed apart in the source
[16] = target: Fibroblast growth factor receptor 1 (Homo sapiens) (UniProt P11362); assay: FGFR1 Kinase screen; settings: Compound concentration 1.0 uM
[17] = target: GABA-A receptor; anion channel (Rattus norvegicus) (UniProt O09028+P15431+P18506+P18508+P19969+P20236+P23574+P23576+P28471+P28473+P30191+P62813+P63079+P63138+Q91ZM7+Q9ES14); settings: Compound concentration 10.0 uM
[18] = target: T2, Activin receptor type-1 (Homo sapiens) (UniProt Q04771); assay: ACVR1 (ALK2) Kinase screen; settings: Compound concentration 1.0 uM
T2 sequence (whole entry): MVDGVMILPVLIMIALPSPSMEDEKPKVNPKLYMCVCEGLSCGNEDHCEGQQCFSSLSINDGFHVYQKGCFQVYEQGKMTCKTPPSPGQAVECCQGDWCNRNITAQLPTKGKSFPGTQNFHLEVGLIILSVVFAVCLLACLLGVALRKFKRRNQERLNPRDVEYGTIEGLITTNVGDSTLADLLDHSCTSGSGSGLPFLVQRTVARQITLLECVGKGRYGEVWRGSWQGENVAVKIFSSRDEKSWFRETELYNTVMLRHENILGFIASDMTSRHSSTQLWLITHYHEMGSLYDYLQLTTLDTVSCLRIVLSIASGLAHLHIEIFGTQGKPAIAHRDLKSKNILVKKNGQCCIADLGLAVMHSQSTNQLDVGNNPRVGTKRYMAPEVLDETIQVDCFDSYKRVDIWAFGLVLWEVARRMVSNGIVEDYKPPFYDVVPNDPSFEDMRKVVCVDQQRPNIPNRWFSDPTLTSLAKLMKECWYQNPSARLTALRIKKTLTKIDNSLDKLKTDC

[19] = target: T3, Dual specificity protein kinase TTK (Homo sapiens) (UniProt P33981); assay: TTK Kinase screen; settings: Compound concentration 1.0 uM
T3 sequence (whole entry): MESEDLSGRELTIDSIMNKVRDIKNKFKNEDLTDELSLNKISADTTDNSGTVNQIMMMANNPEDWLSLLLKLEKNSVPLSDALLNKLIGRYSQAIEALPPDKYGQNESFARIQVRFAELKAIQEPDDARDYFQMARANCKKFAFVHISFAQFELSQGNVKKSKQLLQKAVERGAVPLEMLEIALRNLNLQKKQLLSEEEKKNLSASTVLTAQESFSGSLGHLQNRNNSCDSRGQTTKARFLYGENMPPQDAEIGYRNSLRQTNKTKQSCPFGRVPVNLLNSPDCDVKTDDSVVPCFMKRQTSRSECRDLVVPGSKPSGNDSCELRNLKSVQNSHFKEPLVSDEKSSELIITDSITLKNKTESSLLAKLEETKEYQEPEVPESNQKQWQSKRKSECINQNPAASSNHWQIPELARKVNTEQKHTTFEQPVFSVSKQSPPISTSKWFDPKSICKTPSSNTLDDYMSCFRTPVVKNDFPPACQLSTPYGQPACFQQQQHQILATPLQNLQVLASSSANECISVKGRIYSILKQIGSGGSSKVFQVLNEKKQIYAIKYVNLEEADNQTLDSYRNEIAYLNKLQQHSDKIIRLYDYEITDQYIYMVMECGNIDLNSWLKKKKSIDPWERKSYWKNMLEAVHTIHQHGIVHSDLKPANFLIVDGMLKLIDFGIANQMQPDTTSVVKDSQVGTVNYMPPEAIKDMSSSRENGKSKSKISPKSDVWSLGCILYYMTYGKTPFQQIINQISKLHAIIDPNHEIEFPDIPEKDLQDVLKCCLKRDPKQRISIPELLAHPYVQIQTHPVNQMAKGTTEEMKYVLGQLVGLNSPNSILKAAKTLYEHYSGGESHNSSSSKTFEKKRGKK

[20] = target: Rho-associated protein kinase 1 (Homo sapiens) (UniProt Q13464); assay: ROCK1 Kinase screen; settings: Compound concentration 1.0 uM
[21] = target: Activin receptor type-2B (Homo sapiens) (UniProt Q13705); assay: ACVR2B Kinase screen; settings: Compound concentration 1.0 uM
Chain of Activin receptor type-2B (Homo sapiens) (Q13705 whole entry): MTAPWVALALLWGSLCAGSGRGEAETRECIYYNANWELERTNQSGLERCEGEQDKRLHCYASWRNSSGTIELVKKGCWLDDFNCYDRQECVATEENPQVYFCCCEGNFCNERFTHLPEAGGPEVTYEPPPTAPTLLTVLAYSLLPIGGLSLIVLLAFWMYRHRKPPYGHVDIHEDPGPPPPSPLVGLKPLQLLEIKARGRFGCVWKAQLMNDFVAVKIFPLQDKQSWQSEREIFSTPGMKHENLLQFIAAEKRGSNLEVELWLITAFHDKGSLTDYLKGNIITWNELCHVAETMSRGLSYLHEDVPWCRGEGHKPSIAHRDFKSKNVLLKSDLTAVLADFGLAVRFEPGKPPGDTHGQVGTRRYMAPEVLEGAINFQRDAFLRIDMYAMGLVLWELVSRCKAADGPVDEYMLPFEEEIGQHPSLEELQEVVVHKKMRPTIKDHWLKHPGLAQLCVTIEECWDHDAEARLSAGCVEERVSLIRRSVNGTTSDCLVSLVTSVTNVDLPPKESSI

[22] = species: Rattus norvegicus; assay: Testosterone Eurofins-Panlabs radioligand binding assay; set-up: ligand concentration 1.5 nM; settings: Compound concentration 10.0 uM
[23] = test system: Tyrosine-protein kinase JAK2 (Homo sapiens), O60674 [V617F]; assay: JAK2 JH1 JH2 V617F Kinase screen; settings: Compound concentration 1.0 uM

Measured: inhibition

Chain of Mitogen-activated protein kinase kinase kinase 11 (Homo sapiens) (Q16584 whole entry, looked up): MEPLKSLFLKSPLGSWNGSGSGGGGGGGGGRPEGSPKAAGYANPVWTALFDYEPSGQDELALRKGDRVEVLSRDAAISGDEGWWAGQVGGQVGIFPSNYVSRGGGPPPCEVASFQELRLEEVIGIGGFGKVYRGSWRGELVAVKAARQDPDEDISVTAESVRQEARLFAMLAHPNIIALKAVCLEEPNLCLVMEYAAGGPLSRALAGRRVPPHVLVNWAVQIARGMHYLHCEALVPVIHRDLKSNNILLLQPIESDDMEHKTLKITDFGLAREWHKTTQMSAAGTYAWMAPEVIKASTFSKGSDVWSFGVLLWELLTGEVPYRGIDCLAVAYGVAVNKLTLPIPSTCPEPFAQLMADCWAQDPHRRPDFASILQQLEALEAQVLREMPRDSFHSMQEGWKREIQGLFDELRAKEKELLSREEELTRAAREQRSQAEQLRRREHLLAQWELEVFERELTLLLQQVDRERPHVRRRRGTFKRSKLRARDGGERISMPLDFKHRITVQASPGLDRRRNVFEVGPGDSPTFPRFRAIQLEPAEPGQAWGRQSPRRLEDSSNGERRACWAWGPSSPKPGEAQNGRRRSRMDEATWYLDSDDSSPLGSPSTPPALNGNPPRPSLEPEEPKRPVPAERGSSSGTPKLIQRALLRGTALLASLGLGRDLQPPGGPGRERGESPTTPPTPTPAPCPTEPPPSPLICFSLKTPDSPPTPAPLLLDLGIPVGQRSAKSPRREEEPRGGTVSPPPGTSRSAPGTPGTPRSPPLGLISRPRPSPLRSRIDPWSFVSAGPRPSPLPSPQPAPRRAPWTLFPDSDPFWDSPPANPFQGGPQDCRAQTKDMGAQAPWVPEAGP
Chain of Glucocorticoid receptor (Homo sapiens) (P04150 whole entry): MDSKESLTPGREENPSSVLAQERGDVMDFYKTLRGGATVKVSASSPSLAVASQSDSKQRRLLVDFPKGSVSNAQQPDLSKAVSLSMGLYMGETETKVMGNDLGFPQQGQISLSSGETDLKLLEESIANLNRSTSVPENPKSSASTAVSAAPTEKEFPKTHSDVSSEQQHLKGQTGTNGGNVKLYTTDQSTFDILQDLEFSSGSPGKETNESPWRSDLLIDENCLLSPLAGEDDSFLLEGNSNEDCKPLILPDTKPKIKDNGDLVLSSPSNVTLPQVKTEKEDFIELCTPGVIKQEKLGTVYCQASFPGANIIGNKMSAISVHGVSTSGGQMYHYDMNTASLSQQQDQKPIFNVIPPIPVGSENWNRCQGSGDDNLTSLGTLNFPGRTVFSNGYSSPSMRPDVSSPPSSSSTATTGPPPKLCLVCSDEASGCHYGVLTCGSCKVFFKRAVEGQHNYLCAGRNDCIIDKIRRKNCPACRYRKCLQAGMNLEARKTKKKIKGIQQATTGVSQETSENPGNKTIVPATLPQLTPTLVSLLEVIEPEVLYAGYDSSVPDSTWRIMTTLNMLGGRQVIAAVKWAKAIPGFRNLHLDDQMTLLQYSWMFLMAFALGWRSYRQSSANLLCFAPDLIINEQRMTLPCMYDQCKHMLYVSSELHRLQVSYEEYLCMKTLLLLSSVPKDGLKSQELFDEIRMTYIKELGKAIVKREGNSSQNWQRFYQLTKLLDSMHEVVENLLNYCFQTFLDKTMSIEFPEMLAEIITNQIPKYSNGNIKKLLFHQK

C[C@@H]1CN(c2cc(-c3n[nH]c4ccc(OC5(C)CC5)cc34)ncn2)C[C@H](C)O1 [MLi-2]
inactive: [1] -3.69% | [2] 0% | [3] 19% | [4] 3% | [5] -2.46% | [6] 10.9% | [7] 1.5% | [8] 1.73% | [9] 2.98% | [10] 5.51% | [11] 27.3% | [12] 8.35% | [13] 4% | [14] 8.75% | [15] 5% | [16] 3.88% | [17] 35% | [18] 10.7% | [19] 56.5% | [20] -0.899% | [21] -1.21% | [22] 9% | [23] -7.77%
